Data: patent US9346815B2, “5-chloro-2-difluoromethoxyphenyl pyrazolopyrimidine compounds, compositions and methods of use thereof” (Genentech, Inc., priority 2014, dated 2016)
pEC50, pKi: −log10 of the molar value.

How the values were obtained:
[1] = molecular target: isolated recombinant JAK1 kinase domain (Homo sapiens (Human), UniProt P23458); assay: JAK1 enzyme assay (Caliper LabChip, peptide phosphorylation); type: biochemical; details: isolated recombinant JAK1 kinase domain, 25 μM ATP
[2] = system: JAK1-dependent STAT6 phosphorylation downstream of IL-13 stimulation in BEAS-2B human bronchial epithelial cells; assay: JAK1 pathway assay in BEAS-2B cells (IL-13-pSTAT6, MSD); type: cell-based; details: read-out: IL13-pSTAT6 EC50 (uM)_BEAS-2B
Procedure, shortened: (§1)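 BEAS-2B: complete growth medium, compound 1 hr at 37° C. TF-1: GM-CSF-starved overnight, serum-free OptiMEM, compound 30 min.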

[3] = system: JAK1-dependent STAT6 phosphorylation downstream of IL-13 stimulation in TF-1 human erythroleukemia cells; assay: JAK1 pathway assay in TF-1 cells (IL-13-pSTAT6, MSD); type: cell-based; details: Homo sapiens, TF-1, TF-1 cells, read-out: IL13-pSTAT6 EC50_TF-1
Procedure, shortened: as §1

[4] = molecular target: isolated recombinant JAK2 kinase domain (Homo sapiens (Human), UniProt O60674); assay: JAK2 enzyme assay (Caliper LabChip, peptide phosphorylation); type: biochemical; details: 25 μM ATP
isolated recombinant JAK2 kinase domain, sequence (O60674 849-1124): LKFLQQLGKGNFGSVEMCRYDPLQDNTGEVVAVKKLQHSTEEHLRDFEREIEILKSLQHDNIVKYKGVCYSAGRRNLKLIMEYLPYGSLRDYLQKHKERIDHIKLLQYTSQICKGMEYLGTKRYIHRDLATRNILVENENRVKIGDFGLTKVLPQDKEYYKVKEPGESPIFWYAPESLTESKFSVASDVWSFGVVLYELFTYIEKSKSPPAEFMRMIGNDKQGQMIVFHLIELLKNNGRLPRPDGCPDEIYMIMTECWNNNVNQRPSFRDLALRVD

isolated recombinant JAK1 kinase domain, sequence (P23458 875-1153): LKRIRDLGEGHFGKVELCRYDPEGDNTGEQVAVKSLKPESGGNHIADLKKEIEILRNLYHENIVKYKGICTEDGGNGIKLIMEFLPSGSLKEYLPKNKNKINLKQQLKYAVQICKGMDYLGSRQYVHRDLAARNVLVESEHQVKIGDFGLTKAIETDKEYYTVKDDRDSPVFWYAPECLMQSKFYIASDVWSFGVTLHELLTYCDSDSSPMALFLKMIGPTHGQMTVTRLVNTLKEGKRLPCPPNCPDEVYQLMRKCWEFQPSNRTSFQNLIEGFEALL

Row | pKi [1] | pEC50 [3] | pKi [4] | SMILES | EC50 [2]
1 | 8.70 | 8.10 | 8.85 | CN(CC1(C#N)CCCCC1)C1CCN(C(=O)C2CCN(c3nc(-c4cc(Cl)ccc4OC(F)F)c(NC(=O)c4cnn5cccnc45)s3)CC2)CC1 [Example 204, N-[4-[5-chloro-2-(difluoromethoxy)phenyl]-2-[4-[4-[(1-cyanocyclohexyl)methyl-methyl-amino]piperidine-1-carbonyl]-1-piperidyl]thiazol-5-yl]pyrazolo[1,5-a]pyrimidine-3-carboxamide] | 0.172 µM
2 | 9.41 | 8.30 | 8.89 | CC(C)CN1CCC2(CCN(C(=O)Cn3cc(NC(=O)c4cnn5cccnc45)c(-c4cc(Cl)ccc4OC(F)F)n3)CC2)C1 [Example 225, N-[3-[5-chloro-2-(difluoromethoxy)phenyl]-1-[2-(2-isobutyl-2,8-diazaspiro[4.5]decan-8-yl)-2-oxo-ethyl]pyrazol-4-yl]pyrazolo[1,5-a]pyrimidine-3-carboxamide] | 0.0423 µM
3 | 9.26 | 8.44 | 9.03 | CN1CCN(C(=O)Cn2cc(NC(=O)c3cnn4cccnc34)c(-c3cc(Cl)ccc3OC(F)F)n2)CC1 [Example 227, Pyrazolo[1,5-a]pyrimidine-3-carboxylic acid {3-(5-chloro-2-difluoromethoxyphenyl)-1-[2-(4-methylpiperazin-1-yl)-2-oxoethyl]-1H-pyrazol-4-yl}amide] | 0.0271 µM
4 | 9.33 | 7.95 | 9.05 | O=C(Nc1cn(CC(=O)N2CCN(CCO)CC2)nc1-c1cc(Cl)ccc1OC(F)F)c1cnn2cccnc12 [Example 228, N-[3-[5-chloro-2-(difluoromethoxy)phenyl]-1-[2-[4-(2-hydroxyethyl)piperazin-1-yl]-2-oxo-ethyl]pyrazol-4-yl]pyrazolo[1,5-a]pyrimidine-3-carboxamide] | 0.0655 µM
5 | 9.24 | 7.67 | 8.97 | CN1CCN(C(=O)Cn2cc(NC(=O)c3cnn4cccnc34)c(-c3cc(Cl)ccc3OC(F)F)n2)C[C@H]1CO [Example 235, N-[3-[5-chloro-2-(difluoromethoxy)phenyl]-1-[2-[(3S)-3-(hydroxymethyl)-4-methyl-piperazin-1-yl]-2-oxo-ethyl]pyrazol-4-yl]pyrazolo[1,5-a]pyrimidine-3-carboxamide] | 0.114 µM
6 | 9.47 | 8.49 | 9.04 | O=C(Nc1cn(CC(=O)N2CCC(CO)CC2)nc1-c1cc(Cl)ccc1OC(F)F)c1cnn2cccnc12 [Example 274, N-[3-[5-chloro-2-(difluoromethoxy)phenyl]-1-[2-[4-(hydroxymethyl)-1-piperidyl]-2-oxo-ethyl]pyrazol-4-yl]pyrazolo[1,5-a]pyrimidine-3-carboxamide] | 0.0131 µM
7 | 9.41 | 8.37 | 9.09 | CC1(O)CCN(C(=O)Cn2cc(NC(=O)c3cnn4cccnc34)c(-c3cc(Cl)ccc3OC(F)F)n2)CC1 [Example 280, N-[3-[5-chloro-2-(difluoromethoxy)phenyl]-1-[2-(4-hydroxy-4-methyl-1-piperidyl)-2-oxo-ethyl]pyrazol-4-yl]pyrazolo[1,5-a]pyrimidine-3-carboxamide] | 0.0215 µM
8 | 9.24 | 8.55 | 8.95 | O=C(Nc1cn(CC(=O)N2CCOCC2)nc1-c1cc(Cl)ccc1OC(F)F)c1cnn2cccnc12 [Example 288, N-[3-[5-chloro-2-(difluoromethoxy)phenyl]-1-(2-morpholino-2-oxo-ethyl)pyrazol-4-yl]pyrazolo[1,5-a]pyrimidine-3-carboxamide] | 0.0363 µM
9 | 9.27 | 8.44 | 9.26 | O=C(Cn1cc(NC(=O)c2cnn3cccnc23)c(-c2cc(Cl)ccc2OC(F)F)n1)NCC1(CO)CC1 [Example 291, N-[3-[5-chloro-2-(difluoromethoxy)phenyl]-1-[2-[[1-(hydroxy-methyl)cyclopropyl]methylamino]-2-oxo-ethyl]pyrazol-4-yl]pyrazolo[1,5-a]pyrimidine-3-carboxamide] | 0.0317 µM
10 | 9.41 | 8.85 | 9.40 | O=C(Nc1cn(CC2(O)CCCC2)nc1-c1cc(Cl)ccc1OC(F)F)c1cnn2cccnc12 [Example 292, N-[3-[5-chloro-2-(difluoromethoxy)phenyl]-1-[(1-hydroxy-cyclopentyl)methyl]pyrazol-4-yl]pyrazolo[1,5-a]pyrimidine-3-carboxamide] | 0.021 µM
11 | 9.54 | 8.52 | 9.42 | CN(C(=O)Cn1cc(NC(=O)c2cnn3cccnc23)c(-c2cc(Cl)ccc2OC(F)F)n1)C1(CO)CC1 [Example 293] | 0.0081 µM
12 | 9.31 | 8.26 | 9.68 | NCCn1cc(NC(=O)c2c(N)nn3cccnc23)c(-c2cc(Cl)ccc2OC(F)F)n1 [Example 295, 2-amino-N-[1-(2-aminoethyl)-3-[5-chloro-2-(difluoromethoxy)phenyl]pyrazol-4-yl]pyrazolo[1,5-a]pyrimidine-3-carboxamide] | 0.0345 µM
13 | 9.59 | 8.25 | 9.68 | CN[C@@H]1CCC[C@H](n2cc(NC(=O)c3c(N)nn4cccnc34)c(-c3cc(Cl)ccc3OC(F)F)n2)C1 [Example 296, 2-amino-N-[3-[5-chloro-2-(difluoromethoxy)phenyl]-1-[(1S,3R)-3-(methylamino)cyclohexyl]pyrazol-4-yl]pyrazolo[1,5-a]pyrimidine-3-carboxamide] | 0.0283 µM
14 | 9.49 | 8.15 | 10.15 | Nc1nn2cccnc2c1C(=O)Nc1cn([C@H]2C[C@@H](N)C2)nc1-c1cc(Cl)ccc1OC(F)F [Example 297, 2-Amino-pyrazolo[1,5-a]pyrimidine-3-carboxylic acid [1-(3-amino-cyclobutyl)-3-(5-chloro-2-difluoromethoxy-phenyl)-1H-pyrazol-4-yl]-amide] | 0.0308 µM
15 | 9.28 | 8.36 | 9.74 | CN[C@H]1C[C@@H](n2cc(NC(=O)c3c(N)nn4cccnc34)c(-c3cc(Cl)ccc3OC(F)F)n2)C1 [Example 298, 2-amino-N-[3-[5-chloro-2-(difluoromethoxy)phenyl]-1-[3-(methylamino)cyclobutyl]pyrazol-4-yl]pyrazolo[1,5-a]pyrimidine-3-carboxamide] | 0.0215 µM
16 | 9.42 | 8.39 | 9.41 | CCN(Cc1ccnc(C)c1)C(=O)Cn1cc(NC(=O)c2cnn3cccnc23)c(-c2cc(Cl)ccc2OC(F)F)n1 [Example 299, N-[3-[5-chloro-2-(difluoromethoxy)phenyl]-1-[2-[ethyl-[(2-methyl-4-pyridyl)methyl]amino]-2-oxo-ethyl]pyrazol-4-yl]pyrazolo[1,5-a]pyrimidine-3-carboxamide] | 0.0104 µM
17 | 9.55 | 8.40 | 9.74 | CCN(Cc1ccnc(Cl)c1)C(=O)Cn1cc(NC(=O)c2cnn3cccnc23)c(-c2cc(Cl)ccc2OC(F)F)n1 [Example 300, N-[3-[5-chloro-2-(difluoromethoxy)phenyl]-1-[2-[(2-chloro-4-pyridyl)methyl-ethyl-amino]-2-oxo-ethyl]pyrazol-4-yl]pyrazolo[1,5-a]pyrimidine-3-carboxamide] | 0.0142 µM
18 | 9.48 | 8.47 | 9.44 | CCN(Cc1cccnc1)C(=O)Cn1cc(NC(=O)c2cnn3cccnc23)c(-c2cc(Cl)ccc2OC(F)F)n1 [Example 301, N-[3-[5-chloro-2-(difluoromethoxy)phenyl]-1-[2-[ethyl(3-pyridylmethyl)amino]-2-oxo-ethyl]pyrazol-4-yl]pyrazolo[1,5-a]pyrimidine-3-carboxamide] | 0.0095 µM
19 | 9.11 | 8.23 | 9.41 | N=C(N)CCn1cc(NC(=O)c2cnn3cccnc23)c(-c2cc(Cl)ccc2OC(F)F)n1 [Example 304, N-[1-(2-carbamimidoylethyl)-3-[5-chloro-2-(difluoromethoxy)phenyl]-1H-pyrazol-4-yl]pyrazolo[1,5-a]pyrimidine-3-carboxamide] | 0.0469 µM
20 | 9.21 | 7.96 | 9.49 | N=C(N)CCCn1cc(NC(=O)c2cnn3cccnc23)c(-c2cc(Cl)ccc2OC(F)F)n1 [Example 305, N-[1-(4-amino-4-imino-butyl)-3-[5-chloro-2-(difluoromethoxy)phenyl]pyrazol-4-yl]pyrazolo[1,5-a]pyrimidine-3-carboxamide] | 0.0426 µM
21 | 8.94 | 8.21 | 9.27 | CCOC(=O)CNCCn1cc(NC(=O)c2cnn3cccnc23)c(-c2cc(Cl)ccc2OC(F)F)n1 [Example 306, Ethyl 2-[(2-[3-[5-chloro-2-(difluoromethoxy)phenyl]-4-[pyrazolo[1,5-a]pyrimidine-3-amido]-1H-pyrazol-1-yl]ethyl)amino]acetate] | 0.0659 µM
22 | 8.84 | 8.21 | 9.23 | O=C(CNCCn1cc(NC(=O)c2cnn3cccnc23)c(-c2cc(Cl)ccc2OC(F)F)n1)OC1CCCC1 [Example 307, cyclopentyl 2-[2-[3-[5-chloro-2-(difluoromethoxy)phenyl]-4-(pyrazolo[1,5-a]pyrimidine-3-carbonylamino)pyrazol-1-yl]ethylamino]acetate] | 0.025 µM
